# Values joined by “and” are separate entries in the source; they are usually repeats but may differ in a detail not shown here. Equal entries are not always repeated. Non-standard residues stand in square brackets, D forms with d. Residues, ends and D or L forms follow the SMILES beside them. *: point of attachment. Dolaproine = CO[C@@H]([C@@H]1CCCN1)[C@@H](C)C(=O)O; Dil = CC[C@H](C)[C@H](NC)[C@@H](CC(=O)O)OC; X1 = C[C@@H](N*)[C@@H](O)c1ccccc1; NMeV = CN[C@H](C(=O)O)C(C)C
# System: 4T1-FAP cells
# Assay: CCK-8 cell viability assay (cytotoxicity of MMAE and NAPC-ADC)
# Assay type: cell-based, Mouse
# Details: 72 hour incubation
# Description: Cell viability was assessed using CCK-8 assay. Each experiment was performed in triplicate. To detect cytotoxicity of MMAE and NAPC-ADC, 4T1-FAP cells were seeded at 5×10^4 /mL in 96-well plates in 200 µL rmi-1640 medium containing 10% FBS and 1% penicillin/streptomycin, incubated at 37 °C in a 5% CO2 incubator for 24 hours, then incubated with different concentrations of MMAE and NAPC-ADC for 72 hour, and blank medium containing CCK-8 at a final concentration of 0.5 mg/mL was added. Incubated at 37 °C, 5% CO2 for 2 hours, absorbance was measured at 450 nm. The absorbance of treated cells was compared to that of the control group, whose viability was set at 100%.
compound,measurement,value
CC[C@H](C)[C@@H]([C@@H](CC(=O)N1CCC[C@H]1[C@H](OC)[C@@H](C)C(=O)N[C@H](C)[C@@H](O)c1ccccc1)OC)N(C)C(=O)[C@@H](NC(=O)[C@@H](NC)C(C)C)C(C)C [MMAE] (H-[NMeV]V[Dil][Dolaproine]-X1),IC50,< 1.69 nM and 1.69 nM

# Source: patent publication EP4733301A1 (priority 2023, dated 2025)
